Assay results reported in US9149038B2, “4-amino-6-(heterocyclic)picolinates and 6-amino-2-(heterocyclic)pyrimidine-4-carboxylates and their use as herbicides” (Dow AgroSciences LLC, priority 2013, dated 2015).
Like-named read-outs stand apart in the source and are kept apart here.

Columns and labels:
[1] = tested on: Key Grass and Sedge Weeds as well as Grass Crops; assay: Post-Emergent Test II: postemergent herbicidal activity, visual rating after 14 d (Table 8); type: in vivo; conditions: post-emergence, 336 h; for pest or weed control at 35 g/ha: 35 g ai/ha; for pest or weed control at 70 g/ha: 70 g ai/ha; for pest or weed control at 140 g/ha: 140 g ai/ha
Outline: (§1)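 Visual scoring at 14 d, 0 (no injury) to 100 (complete kill), relative to untreated plants. Postemergent overhead track-sprayer application, 187 L/ha, at a top rate plus serial ½×–1/16× rates, to plants grown 7–21 d at about 23–29° C day under a 15 h photoperiod, then subirrigated.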

[2] = tested on: Key Broadleaf Weed and Crop Species; assay: Post-Emergent Test II: postemergent herbicidal activity, visual rating after 14 d (Table 7); type: in vivo; conditions: post-emergence, 336 h; for pest or weed control at 35 g/ha: 35 g ai/ha; for pest or weed control at 70 g/ha: 70 g ai/ha; for pest or weed control at 140 g/ha: 140 g ai/ha
Outline: as §1

[3] = barnyardgrass (Echinochloa crus-galli), read-out: Visual Growth Reduction (%) 14 Days After Application, ECHCG
[4] = giant foxtail (Setaria faberi), read-out: Visual Growth Reduction (%) 14 Days After Application, SETFA
[5] = maize, corn (Zea mays), read-out: Visual Growth Reduction (%) 14 Days After Application, ZEAMX
[6] = rice (Oryza sativa), read-out: Visual Growth Reduction (%) 14 Days After Application, ORYSA
[7] = wheat, spring (Triticum aestivum), read-out: Visual Growth Reduction (%) 14 Days After Application, TRZAS
[8] = yellow nutsedge (Cyperus esculentus), read-out: Visual Growth Reduction (%) 14 Days After Application, CYPES
[9] = ABUTH: velvetleaf (Abutilon theophrasti), read-out: Visual Growth Reduction (%) 14 Days After Application ABUTH
[10] = AMARE: redroot pigweed (Amaranthus retroflexus), read-out: Visual Growth Reduction (%) 14 Days After Application AMARE
[11] = BRSNN: oilseed rape, canola (Brassica napus), read-out: Visual Growth Reduction (%) 14 Days After Application BRSNN
[12] = CHEAL: lambsquarters (Chenopodium album), read-out: Visual Growth Reduction (%) 14 Days After Application CHEAL
[13] = EPHHL: wild poinsettia (Euphorbia heterophylla), read-out: Visual Growth Reduction (%) 14 Days After Application EPHHL
[14] = HELAN: sunflower (Helianthus annuus), read-out: Visual Growth Reduction (%) 14 Days After Application HELAN

Compound | pest or weed control at 35 g/ha [1, 3] [%] | pest or weed control at 70 g/ha [1, 3] [%] | pest or weed control at 140 g/ha [1, 3] [%] | pest or weed control at 35 g/ha [1, 4] [%] | pest or weed control at 70 g/ha [1, 4] [%] | pest or weed control at 140 g/ha [1, 4] [%] | pest or weed control at 35 g/ha [1, 5] [%] | pest or weed control at 70 g/ha [1, 5] [%] | pest or weed control at 140 g/ha [1, 5] [%] | pest or weed control at 35 g/ha [1, 6] [%] | pest or weed control at 70 g/ha [1, 6] [%] | pest or weed control at 140 g/ha [1, 6] [%] | pest or weed control at 35 g/ha [1, 7] [%] | pest or weed control at 70 g/ha [1, 7] [%] | pest or weed control at 140 g/ha [1, 7] [%] | pest or weed control at 35 g/ha [1, 8] [%] | pest or weed control at 70 g/ha [1, 8] [%] | pest or weed control at 140 g/ha [1, 8] [%] | pest or weed control at 35 g/ha [2, 9] [%] | pest or weed control at 70 g/ha [2, 9] [%] | further results
COC(=O)c1nc(-c2ccc(F)c3c2OCO3)c(F)c(N)c1Cl [Compound 83] | 0 to 29 | 0 to 29 | 0 to 29 | 0 to 29 | 0 to 29 | 0 to 29 | 0 to 29 | 0 to 29 | 0 to 29 | 0 to 29 | 0 to 29 | 0 to 29 | 0 to 29 | 0 to 29 | 0 to 29 | 0 to 29 | 0 to 29 | 0 to 29 | 85 to 94 | 85 to 94 | pest or weed control at 140 g/ha [2, 9]: 95 to 100%; pest or weed control at 35 g/ha [2, 10]: 95 to 100%; pest or weed control at 70 g/ha [2, 10]: 95 to 100%; pest or weed control at 140 g/ha [2, 10]: 95 to 100%; pest or weed control at 35 g/ha [2, 11]: 30 to 44%; pest or weed control at 70 g/ha [2, 11]: 95 to 100%; pest or weed control at 140 g/ha [2, 11]: 95 to 100%; pest or weed control at 35 g/ha [2, 12]: 95 to 100%; pest or weed control at 70 g/ha [2, 12]: 95 to 100%; pest or weed control at 140 g/ha [2, 12]: 95 to 100%; pest or weed control at 35 g/ha [2, 13]: 0 to 29%; pest or weed control at 70 g/ha [2, 13]: 0 to 29%; pest or weed control at 140 g/ha [2, 13]: 0 to 29%; pest or weed control at 35 g/ha [2, 14]: 85 to 94%; pest or weed control at 70 g/ha [2, 14]: 95 to 100%; pest or weed control at 140 g/ha [2, 14]: 95 to 100%
COC(=O)c1nc(-c2cccc3c2OCO3)nc(N)c1OC [Compound 98] | 0 to 29 | 0 to 29 | 0 to 29 | 0 to 29 | 0 to 29 | 0 to 29 | 0 to 29 | 0 to 29 | 0 to 29 | 0 to 29 | 0 to 29 | 0 to 29 | 0 to 29 | 0 to 29 | 0 to 29 | 0 to 29 | 0 to 29 | 0 to 29 | 0 to 29 | 0 to 29 | pest or weed control at 140 g/ha [2, 9]: 0 to 29%; pest or weed control at 35 g/ha [2, 10]: 0 to 29%; pest or weed control at 70 g/ha [2, 10]: 0 to 29%; pest or weed control at 140 g/ha [2, 10]: 30 to 44%; pest or weed control at 35 g/ha [2, 11]: 0 to 29%; pest or weed control at 70 g/ha [2, 11]: 0 to 29%; pest or weed control at 140 g/ha [2, 11]: 0 to 29%; pest or weed control at 35 g/ha [2, 12]: 45 to 59%; pest or weed control at 70 g/ha [2, 12]: 60 to 74%; pest or weed control at 140 g/ha [2, 12]: 60 to 74%; pest or weed control at 35 g/ha [2, 13]: 0 to 29%; pest or weed control at 70 g/ha [2, 13]: 0 to 29%; pest or weed control at 140 g/ha [2, 13]: 0 to 29%; pest or weed control at 35 g/ha [2, 14]: 0 to 29%; pest or weed control at 70 g/ha [2, 14]: 30 to 44%; pest or weed control at 140 g/ha [2, 14]: 60 to 74%
